The results in this text go back to patent US12018021B2 (UCB Biopharma SRL, priority 2018, dated 2024).

The target of this test is IgE-Tb / sFcεRIα-Y131A-AF488 (Homo sapiens, UniProt P01854, N146Q/N252Q). Description: IgE-Tb / sFcεRIα-Y131A-AF488 FRET assay (protocol for examples 234 to 501). In kind it is binding. To be noted: examples 234 to 501: compound with IgE-Tb 30 minutes before sFcεRIα-Y131A-AF488, incubated 18 hours at room temperature; read-out: Y131A FRET IC50 range. An outline of the steps: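 Read-out is the 520/490 nm emission ratio (337 nm excitation) after 18 h at room temperature, background subtracted, fitted four-parameter for IC50. Final reagents: 5 nM IgE-Tb, preincubated 30 min with compound (top typically 10 μM, 2% DMSO, 3-fold 10-point), plus 25 nM sFcεRIα-Y131A-AF488.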
Sequence of IgE-Tb / sFcεRIα-Y131A-AF488 (P01854 whole entry N146Q/N252Q): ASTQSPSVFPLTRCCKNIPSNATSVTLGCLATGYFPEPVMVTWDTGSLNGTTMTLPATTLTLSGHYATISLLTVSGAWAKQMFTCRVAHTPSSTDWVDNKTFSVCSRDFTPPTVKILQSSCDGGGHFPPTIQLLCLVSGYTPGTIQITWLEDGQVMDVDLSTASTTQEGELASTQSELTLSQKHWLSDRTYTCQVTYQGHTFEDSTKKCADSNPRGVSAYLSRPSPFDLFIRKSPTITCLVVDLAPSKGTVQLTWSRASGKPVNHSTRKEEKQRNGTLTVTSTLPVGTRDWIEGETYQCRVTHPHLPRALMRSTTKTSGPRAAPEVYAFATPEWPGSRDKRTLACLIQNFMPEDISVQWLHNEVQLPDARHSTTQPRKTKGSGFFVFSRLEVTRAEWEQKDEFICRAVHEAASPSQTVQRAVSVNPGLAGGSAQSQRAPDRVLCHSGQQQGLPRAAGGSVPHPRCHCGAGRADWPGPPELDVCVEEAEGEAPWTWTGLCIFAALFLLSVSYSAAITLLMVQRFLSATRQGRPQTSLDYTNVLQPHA
For `Cc1c(Nc2nncn2[C@H]2CCc3sc(NC(=O)C4CC4)c(C(=O)NCC4CC4)c3C2)cccc1S(C)(=O)=O` [Example 264, (5S)-2-(cyclopropanecarbonylamino)-N-(cyclopropylmethyl)-5-[3-(2-methyl-3-methylsulfonyl-anilino)-1,2,4-triazol-4-yl]-4,5,6,7-tetrahydrobenzothiophene-3-carboxamide], the IC50 was under 1000 nM.
As for `Cn1nc(-c2ncco2)cc1Nc1nncn1[C@H]1CCc2sc(NC(=O)C3CC3)c(C(=O)NCC3CC3)c2C1` [Example 265, (5S)-2-(cyclopropanecarbonylamino)-N-(cyclopropylmethyl)-5-[3-[(2-methyl-5-oxazol-2-yl-pyrazol-3-yl)amino]-1,2,4-triazol-4-yl]-4,5,6,7-tetrahydrobenzothiophene-3-carboxamide], the figure is under 1000 nM; as for `CC(=O)N1CC[C@H](Nc2nncn2[C@H]2CCc3sc(NC(=O)C4CC4)c(C(=O)NCC4CC4)c3C2)C1` [Example 266, (5S)-5-[3-[[(3S)-1-acetylpyrrolidin-3-yl]amino]-1,2,4-triazol-4-yl]-2-(cyclopropanecarbonylamino)-N-(cyclopropylmethyl)-4,5,6,7-tetrahydrobenzothiophene-3-carboxamide], under 1000 nM.
Regarding `CS(=O)(=O)N1CC[C@H](Nc2nncn2[C@H]2CCc3sc(NC(=O)C4CC4)c(C(=O)NCC4CC4)c3C2)C1` [Example 267, (5S)-2-(cyclopropanecarbonylamino)-N-(cyclopropylmethyl)-5-[3-[[(3S)-1-methylsulfonylpyrrolidin-3-yl]amino]-1,2,4-triazol-4-yl]-4,5,6,7-tetrahydrobenzothiophene-3-carboxamide], the half-inhibitory concentration (IC50) was under 1000 nM.
Consider `CS(=O)(=O)N1CC[C@@H](Nc2nncn2[C@H]2CCc3sc(NC(=O)C4CC4)c(C(=O)NCC4CC4)c3C2)C1` [Example 268, (5S)-2-(cyclopropanecarbonylamino)-N-(cyclopropylmethyl)-5-[3-[[(3R)-1-methylsulfonylpyrrolidin-3-yl]amino]-1,2,4-triazol-4-yl]-4,5,6,7-tetrahydrobenzothiophene-3-carboxamide], for which the IC50 is under 1000 nM.
As for `O=C1CC(Nc2nncn2[C@H]2CCc3sc(NC(=O)C4CC4)c(C(=O)NCC4CC4)c3C2)CN1` (stereo partly drawn) [Example 270, (5S)-2-(cyclopropanecarbonylamino)-N-(cyclopropylmethyl)-5-[3-[(5-oxopyrrolidin-3-yl)amino]-1,2,4-triazol-4-yl]-4,5,6,7-tetrahydrobenzothiophene-3-carboxamide], the figure is under 1000 nM; as for `O=C1CC(Nc2nncn2[C@H]2CCc3sc(NC(=O)C4CC4)c(C(=O)NCC4CC4)c3C2)CCN1` (stereo partly drawn) [Example 272, (5S)-2-(cyclopropanecarbonylamino)-N-(cyclopropylmethyl)-5-[3-[(2-oxo-4-piperidyl)amino]-1,2,4-triazol-4-yl]-4,5,6,7-tetrahydrobenzothiophene-3-carboxamide], under 1000 nM; as for `CC(=O)N1CCC(Nc2nncn2[C@H]2CCc3sc(NC(=O)C4CC4)c(C(=O)NCC4CC4)c3C2)C1C` (stereo partly drawn) [Example 273, (5S)-5-[3-[(1-acetyl-2-methyl-pyrrolidin-3-yl)amino]-1,2,4-triazol-4-yl]-2-(cyclopropanecarbonylamino)-N-(cyclopropylmethyl)-4,5,6,7-tetrahydrobenzothiophene-3-carboxamide], under 1000 nM.
The value for `CC(=O)N1CCC(Nc2nncn2[C@H]2CCc3sc(NC(=O)C4CC4)c(C(=O)NCC4CC4)c3C2)CC1` [Example 286, (5S)-5-[3-[(1-acetyl-4-piperidyl)amino]-1,2,4-triazol-4-yl]-2-(cyclopropanecarbonylamino)-N-(cyclopropylmethyl)-4,5,6,7-tetrahydrobenzothiophene-3-carboxamide] was under 1000 nM; that for `COC(=O)N1CC[C@H](Nc2nncn2[C@H]2CCc3sc(NC(=O)C4CC4)c(C(=O)NCC4CC4)c3C2)C1` [Example 287, Methyl (3S)-3-[[4-[(5S)-2-(cyclopropanecarbonylamino)-3-(cyclopropylmethylcarbamoyl)-4,5,6,7-tetrahydrobenzothiophen-5-yl]-1,2,4-triazol-3-yl]amino]pyrrolidine-1-carboxylate] was under 1000 nM.
Take `CCNC(=O)N1CC[C@H](Nc2nncn2[C@H]2CCc3sc(NC(=O)C4CC4)c(C(=O)NCC4CC4)c3C2)C1` [Example 288, (3S)-3-[[4-[(5S)-2-(cyclopropanecarbonylamino)-3-(cyclopropylmethylcarbamoyl)-4,5,6,7-tetrahydrobenzothiophen-5-yl]-1,2,4-triazol-3-yl]amino]-N-ethyl-pyrrolidine-1-carboxamide]: the half-inhibitory concentration (IC50) was under 1000 nM.
For `Cn1nc(OC(F)(F)F)cc1Nc1nncn1[C@H]1CCc2sc(NC(=O)[C@H]3C[C@H]3F)c(C(=O)NCC3CC3)c2C1` [Example 292, (5S)—N-(cyclopropylmethyl)-2-[[(1R,2R)-2-fluorocyclopropanecarbonyl]amino]-5-[3-[[2-methyl-5-(trifluoromethoxy)pyrazol-3-yl]amino]-1,2,4-triazol-4-yl]-4,5,6,7-tetrahydrobenzothiophene-3-carboxamide], the IC50 was under 1000 nM.
As for `Cn1nc(OC(F)(F)Cl)cc1Nc1nncn1[C@H]1CCc2sc(NC(=O)[C@H]3C[C@H]3F)c(C(=O)NCC3CC3)c2C1` [Example 293, (5S)-5-[3-[[5-[chloro(difluoro)methoxy]-2-methyl-pyrazol-3-yl]amino]-1,2,4-triazol-4-yl]-N-(cyclopropylmethyl)-2-[[(1R,2R)-2-fluorocyclopropanecarbonyl]amino]-4,5,6,7-tetrahydrobenzothiophene-3-carboxamide], the figure is under 1000 nM; as for `Cn1nc(OC(F)(F)F)cc1Nc1nncn1[C@H]1CCc2sc(NC(=O)C3CC3)c(C(=O)NCC3CC3)c2C1` [Example 294, (5S)-2-(cyclopropanecarbonylamino)-N-(cyclopropylmethyl)-5-[3-[[2-methyl-5-(trifluoromethoxy)pyrazol-3-yl]amino]-1,2,4-triazol-4-yl]-4,5,6,7-tetrahydrobenzothiophene-3-carboxamide], under 1000 nM; as for `Cn1nc(OC(F)(F)Cl)cc1Nc1nncn1[C@H]1CCc2sc(NC(=O)C3CC3)c(C(=O)NCC3CC3)c2C1` [Example 295, (5S)-5-[3-[[5-[chloro(difluoro)methoxy]-2-methyl-pyrazol-3-yl]amino]-1,2,4-triazol-4-yl]-2-(cyclopropanecarbonylamino)-N-(cyclopropylmethyl)-4,5,6,7-tetrahydrobenzothiophene-3-carboxamide], under 1000 nM.
The value for `Cc1nnc(-c2cc(Nc3nncn3[C@H]3CCc4sc(NC(=O)C5CC5)c(C(=O)NCC5CC5)c4C3)n(C)n2)o1` [Example 296, (5S)-2-cyclopropaneamido-N-(cyclopropylmethyl)-5-(3-{[1-methyl-3-(5-methyl-1,3,4-oxadiazol-2-yl)-1H-pyrazol-5-yl]amino}-4H-1,2,4-triazol-4-yl)-4,5,6,7-tetrahydro-1-benzothiophene-3-carboxamide] was under 1000 nM.
The value for `COc1cnc(Nc2nncn2[C@H]2CCc3sc(NC(=O)C4CC4)c(C(=O)NCC4CC4)c3C2)c(C)n1` [Example 297, (5S)-2-(cyclopropanecarbonylamino)-N-(cyclopropylmethyl)-5-[3-[(5-methoxy-3-methyl-pyrazin-2-yl)amino]-1,2,4-triazol-4-yl]-4,5,6,7-tetrahydrobenzothiophene-3-carboxamide] was under 1000 nM; that for `Cc1ccc2nc(N[C@H]3CCc4sc(NC(=O)C5CC5)c(C(=O)NCC5CC5)c4C3)sc2n1` [Example 298, (5S)-2-(cyclopropanecarbonylamino)-N-(cyclopropylmethyl)-5-[(5-methylthiazolo[5,4-b]pyridin-2-yl)amino]-4,5,6,7-tetrahydrobenzothiophene-3-carboxamide] was under 1000 nM.
Take `Cc1ncc(C#N)cc1Nc1nncn1[C@H]1CCc2sc(NC(=O)C3CC3)c(C(=O)NCC3CC3)c2C1` [Example 299, (5S)-5-[3-[(5-cyano-2-methyl-3-pyridyl)amino]-1,2,4-triazo-4-yl]-2-(cyclopropanecarbonylamino)-N-(cyclopropylmethyl)-4,5,6,7-tetrahydrobenzothiophene-3-carboxamide]: the half-maximal inhibitory concentration (IC50) was under 1000 nM.
The value for `Cc1nc(C#N)ccc1Nc1nncn1[C@H]1CCc2sc(NC(=O)C3CC3)c(C(=O)NCC3CC3)c2C1` [Example 300, (5S)-5-[3-[(6-cyano-2-methyl-3-pyridyl)amino]-1,2,4-triazol-4-yl]-2-(cyclopropanecarbonylamino)-N-(cyclopropylmethyl)-4,5,6,7-tetrahydrobenzothiophene-3-carboxamide] was under 1000 nM; that for `Cn1ccc(Nc2nncn2[C@H]2CCc3sc(NC(=O)C4CC4)c(C(=O)NCC4CC4)c3C2)cc1=O` [Example 301, (5S)-2-(cyclopropanecarbonylamino)-N-(cyclopropylmethyl)-5-[3-[(1-methyl-2-oxo-4-pyridyl)amino]-1,2,4-triazol-4-yl]-4,5,6,7-tetrahydrobenzothiophene-3-carboxamide] was under 1000 nM; that for `Cc1nc(Cl)ccc1Nc1nncn1[C@H]1CCc2sc(NC(=O)C3CC3)c(C(=O)NCC3CC3)c2C1` [Example 302, (5S)-5-[3-[(6-chloro-2-methyl-3-pyridyl)amino]-1,2,4-triazol-4-yl]-2-(cyclopropanecarbonylamino)-N-(cyclopropylmethyl)-4,5,6,7-tetrahydrobenzothiophene-3-carboxamide] was under 1000 nM.
As for `Cc1nc(C(F)(F)F)ccc1Nc1nncn1[C@H]1CCc2sc(NC(=O)C3CC3)c(C(=O)NCC3CC3)c2C1` [Example 303, (5S)-2-(cyclopropanecarbonylamino)-N-(cyclopropylmethyl)-5-[3-[[2-methyl-6-(trifluoromethyl)-3-pyridyl]amino]-1,2,4-triazol-4-yl]-4,5,6,7-tetrahydrobenzothiophene-3-carboxamide], the figure is under 1000 nM.

Broadly, the IC50 is the point on the concentration scale where inhibition reaches its midpoint.
